Data reported in patent US20240124483A1, “Methods for the Treatment of Fibrotic Disease” (SHY Therapeutics, LLC, priority 2021, published 2024).
Where two headings read alike, the source gives them in different places.

Key:
Smad2/3 phosphorylation = test: Phospho-Smad2/3 Inhibition Assay in Panc-1 (western blot); type: cell-based; conditions: Homo sapiens; 10 μM, 3 hours; PANC-1 stimulated with 10 ng/ml TGF-b1 for 1 hour; read-out: % inh of Smad2/3 phosphorylation in PANC-1
Outline: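 Serum-starved cells (0.5% FBS overnight) pretreated 3 h at 37 °C with compound at 10 μM or serial dilutions for IC50, in 0.3% DMSO. TGF-b1 10 ng/ml stimulation: 1 h for Panc-1 (human), 20 min for C2C12 (mouse). Phospho-Smad2 (Ser465/467) and phospho-Smad3 (Ser423/425) measured by western blot of lysates.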

JNK = JNK Activation Assay in Panc-1 (western blot); type: cell-based, Human; design: key: Y = yes; N = No; conditions: at 10 μM
Outline: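 Cells were serum-starved overnight in 0.5% FBS, then given compound (10 μM single dose or serial dilutions, 0.3% DMSO) for 3 h at 37 °C. TGF-b1 at 10 ng/ml followed, 1 h for Panc-1 and 20 min for C2C12. Phospho-JNK (Thr183/Tyr185) was read by western blot of lysates.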

MiaPaca2 = MiaPaca2 proliferation; type: cell-based; conditions: Homo sapiens, MIA PaCa-2; for inhibition at 10 µM: read-out: % inh of proliferation in MiaPaca2
KRas wild type = KRas wild type (Homo sapiens (Human), UniProt P01116); test: Ras GTP Binding Domain Inhibition Assay, KRas wild type
KRas wild type, sequence (P01116 other isoform, or with tags, fused parts or gaps): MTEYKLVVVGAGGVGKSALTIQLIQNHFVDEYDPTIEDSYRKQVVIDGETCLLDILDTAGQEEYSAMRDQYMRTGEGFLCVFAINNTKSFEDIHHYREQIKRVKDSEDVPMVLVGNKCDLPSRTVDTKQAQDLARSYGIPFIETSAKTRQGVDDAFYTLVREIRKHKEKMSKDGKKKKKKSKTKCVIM
Outline: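 Fluorescent GTP binding to plate-captured His-tagged Ras: compound 20 μM (or dilution series for IC50), 3 h RT, ±Sos GEF 10-30 μg/mL last hour; then 100 nM Cy3/Cy5-GTP 45 min RT, wash ×3, read bound label.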

Rac-1 = Rac-1 (Homo sapiens (Human), UniProt P63000); test: Ras GTP Binding Domain Inhibition Assay, Rac-1; conditions: without SOS, read-out: Rac-1: % inh.
Outline: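 His-tagged GTPase immobilized on nickel-coated plates (10-30 μg/mL, overnight, 4° C), then exposed to compound (20 μM or serial dilution for IC50, 1% DMSO) for 3 h at room temperature, with or without His-tagged Sos (residues 556-1049) in the final hour. Bound Cy3-GTP or Cy5-GTP (100 nM, 45 min) was read by fluorescence after washing.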

[1] = + SOS, read-out: KRas wild type + SOS: % inh.
[2] = without SOS, read-out: KRas wild type: % inh.

| IC50 (MiaPaca2) [µM] | inhibition at 20 µM (KRas wild type; [1]) [%] | inhibition at 20 µM (KRas wild type; [2]) [%] | inhibition at 20 µM (Rac-1) [%] | SMILES | inhibition at 10 µM (Smad2/3 phosphorylation) [%] | Activation of JNK in PANC-1 (JNK) | inhibition at 10 µM (MiaPaca2) [%] |
| --- | --- | --- | --- | --- | --- | --- | --- |
| 5 to 10 | 76 to 100 | 76 to 100 | 0 | COc1cccc(-c2sc3nc(-c4nccn4C)nc(N[C@H]4C[C@H](OC)C4)c3c2C)c1F [Compound 42, 6-(2-Fluoro-3-methoxyphenyl)-N-((1r,3r)-3-methoxycyclobutyl)-5-methyl-2-(1-methyl-1H-imidazol-2-yl)thieno[2,3-d]pyrimidin-4-amine] | 1 to 25 | Y | 76 to 100 |
| 1 to 4.99 | 76 to 100 | 46 to 75 | 46 to 75 | COc1nccc(-c2sc3nc(-c4nccn4C)nc(N[C@H]4C[C@H](OC)C4)c3c2-c2ccccc2)c1F [Compound 45, 6-(3-Fluoro-2-methoxypyridin-4-yl)-N-((1r,3r)-3-methoxycyclobutyl)-2-(1-methyl-1H-imidazol-2-yl)-5-phenylthieno[2,3-d]pyrimidin-4-amine] | 76 to 100 | Y | 76 to 100 |
| 1 to 4.99 | 76 to 100 | 46 to 75 | 46 to 75 | COc1cc(-c2sc3nc(-c4nccn4C)nc(N[C@H]4C[C@H](OC)C4)c3c2-c2ccccc2)ccn1 [Compound 46, N-((1r,3r)-3-Methoxycyclobutyl)-6-(2-methoxypyridin-4-yl)-2-(1-methyl-1H-imidazol-2-yl)-5-phenylthieno[2,3-d]pyrimidin-4-amine] | 76 to 100 | Y | 76 to 100 |
